From patent publication US4052514A, “Trihalosubstituted biphenylyl propionic acids” (The Boots Company Limited, priority 1971, dated 1977)

Test system: adjuvant arthritis
Assay: rat adjuvant arthritis test (chronic; killed human tubercle bacilli, compounds given daily by mouth for 21 days)
Format: in vivo
Conditions: for ADJUVANT ARTHRITIS (activity; 2-(2-fluoro-4-biphenylyl)propionic acid used as standard of reference): daily by mouth for 21 days, reference 2-(2-fluoro-4-biphenylyl)propionic acid = 1
Protocol: The best method of indicating long acting anti-inflammatory activity of the compounds is by means of a test in which compounds are administered chronically e.g. the rat adjuvant arthritis test. […] The adjuvant arthritis test conducted on the rat is, however a chronic test and is believed to give a good indication of the effectiveness of the compounds for the treatment of chronic conditions in humans. The adjuvant arthritis test is described by Newbould, B. B., in Br. J. Pharmac. Chemother., 1963, 21, 127. In the test arthritis is produced by injecting intradermally into the tail 0.1 ml. of a suspension of killed human tubercle bacilli (6 mg./ml.) in liquid paraffin BP. A polyarthritis develops over the next 3 weeks in untreated controls. The compounds under test (vehicle only for control animals) are given daily by mouth from the day the adjuvant is injected for 21 days. On day 21 the degree of arthritis is assessed on each hind foot. The degree of inhibition produced by a compound is estimated by comparison of the total arthritic scores with those found in the controls.
In the following Table are given the results in the adjuvant arthritis test for the four preferred compounds of the invention and 2-(2-fluoro-4-biphenylyl)propionic acid, the latter compound being used as a standard of reference in the adjuvant arthritis test.
As with the propionic acids of the invention the half-life of the compounds of the invention in the blood of the subject to which they are administered is a good indication of their duration of activity. The half-life may ve measured by giving oral doses of the compounds and determining levels in the plasma at various times thereafer, as previously described. As with the propionic acids of the invention one of the best methods of indicating long acting anti-inflammatory activity of the compounds is by means of a test in which compounds are administered chronically e.g. the rat adjuvant arthritis test.

How did the “times as active as 2-fluoro-4-biphenylylacetic acid in adjuvant arthritis test” value (standard of reference 2-fluoro-4-biphenylylacetic acid) turn out when O=C(O)Cc1ccc(-c2ccc(F)cc2F)c(F)c1 [2,2', 4'-trifluoro-4-biphenylacetic acid, 2,2',4'-trifluoro-4-biphenylylacetic acid] was run?
Its value is “more than 30 times”.

For CC(C(=O)O)c1ccc(-c2ccc(F)cc2Cl)c(F)c1 (stereo not drawn) [2-(2'-chloro-2,4'-difluoro-4-biphenylyl)propionic acid], which “ADJUVANT ARTHRITIS (activity; 2-(2-fluoro-4-biphenylyl)propionic acid used as standard of reference)” value is on record?
Its value is greater than 3.

CC(C(=O)O)c1ccc(-c2ccc(F)cc2F)c(F)c1 (stereo not drawn) [2-(2,2',4'-trifluoro-4-biphenylyl)propionic acid] was tested. Which “ADJUVANT ARTHRITIS (activity; 2-(2-fluoro-4-biphenylyl)propionic acid used as standard of reference)” value did it give?
The value was greater than 10.

Which “ADJUVANT ARTHRITIS (activity; 2-(2-fluoro-4-biphenylyl)propionic acid used as standard of reference)” value does the source give for CC(C(=O)O)c1ccc(-c2ccc(F)cc2F)c(Cl)c1 (stereo not drawn) [2-(2-chloro-2',4'-difluoro-4-biphenylyl)propionic acid] here?
The value was greater than 10.

How did the “ADJUVANT ARTHRITIS (activity; 2-(2-fluoro-4-biphenylyl)propionic acid used as standard of reference)” value turn out when CC(C(=O)O)c1ccc(-c2ccccc2)c(F)c1 (stereo not drawn) [2-(2-fluoro-4-biphenylyl)propionic acid, reference compound] was run?
The value was 1.

Which “ADJUVANT ARTHRITIS (activity; 2-(2-fluoro-4-biphenylyl)propionic acid used as standard of reference)” value does the source give for CC(C(=O)O)c1ccc(-c2ccc(Cl)cc2F)c(F)c1 (stereo not drawn) [2-(4'-chloro-2,2'-difluoro-4-biphenylyl)propionic acid] here?
Its value is greater than 3.
